According to paper PMC10111423, “Antimalarial Imidazopyridines Incorporating an Intramolecular Hydrogen Bonding Motif: Medicinal Chemistry and Mechanistic Studies” (ACS Infectious Diseases, 2023):
≈ marks a conversion by molar mass, not a printed value.

Legend:
[1] = In vitro microsomal stability, rat liver microsomes; assay type: in vitro ADME; conditions: 1 μM, 0.4 mg/mL protein
Method: (§1) Xenotech, Kansas, USA), suspended in 0.1 M phosphate buffer (pH 7.4). (Details of this assay are described in the Supporting Information.) page 20: fold to attain six assay concentrations of 100-0.001 μg/mL. […] was used as the reference compound in this assay. The highest concentration of DMSO, which was used as the negative control, had no measurable effect on cell viability. After 44 hours of exposure of the cells to the test compounds, a solution of MTT was added. This was followed by an additional 4 hours of incubation at 37 °C. The assay plates were centrifuged, medium removed, and DMSO was added to the crystals. The amount of formazan was ascertained by measuring the absorbance at 540 nm. GraphPad Prism software was then used to generate IC50 values through a non-linear dose-response curve analysis. β-Hematin Inhibition Assay 20 mM stock solutions of controls and test compounds were made in DMSO. A solution […] was added to every well in columns 1-11 of a 96-well plate. 140 μL of water and 40 μL of 305.5 μM NP-40 were added to column 12 to mediate the formation of beta-hematin. 20 μL of test compounds (20 mM) were added to column 12 and 100 μL of this solution serially diluted to column 2, leaving column 1 blank (0 μM of test compound). 178.8 μL aliquot of hematin stock was suspended in 20 ml of a 1 M acetate buffer at pH 4.9. 100 μL of this hematin suspension was then added into each well, and the plates were incubated for ±5 hrs at 37°C. Subsequently, 32 μL of pyridine solution (20% water, 20% acetone, 10% 2M HEPES buffer at pH 7.4 and 50% pyridine) and 60 μL of acetone were added to all wells. The absorbances of plate wells were recorded at 405 nm on a SpectraMax plate reader. Sigmoidal dose-response curves with variable slopes were fitted to the absorbance data using GraphPad Prism to obtain the IC50 values for each compound. In vitro Microsomal Stability Assay The in vitro microsomal stability assay was performed in duplicate in a 96-well micro titre […] individually in human (pool of 50, mixed gender), rat (pool of 711, male Sprague Dawley) and mouse (pool of 1634, male CD1) liver microsomes (final protein concentration of 0.4 mg/mL; Xenotech, Kansas, USA), suspended in 0.1M phosphate buffer (pH 7.4). Incubations were S20 page 21: started by addition of NADPH (1 mM) as cofactor and shaken for 30 minutes at 37 °C. The reactions were then quenched by adding 300 μL of ice-cold acetonitrile containing internal standard (carbamazepine, 0.0236 μg/mL) and centrifuged. The supernatant was transferred to a fresh 96-well plate and analysed by LC-MS/MS (Agilent Rapid Resolution HPLC, AB SCIEX 4500 MS). The relative loss of parent compound over time was monitored and plots (concentration vs. time) were prepared per compound to determine the first order rate constant for compound depletion. This was in turn used to calculate half-life, in vitro intrinsic clearance and in vivo hepatic extraction ratio.6 Metabolite Identification Studies […] microsomes (MLM, male mouse CD1, Lot No. 1510043, Xenotech), magnesium chloride (5 mM) and NADPH (1 mM) in sodium phosphate buffer (100 mM, pH 7.4) for 60 minutes while shaking. The samples were then prepared by ice-cold acetonitrile precipitation, centrifuged, and filtered for LC-MS/MS analysis. […] Fluorescence Live-cell Microscopy […] […]

Solubility = assay type: physicochemical; conditions: pH 6.5, aqueous buffer
Source text: Table 1 In Vitro Antiplasmodium Activity, Cytotoxicity, BHIA, and Solubility | column: Solubility pH 6.5, μM

[2] = In vitro microsomal stability, mouse liver microsomes; assay type: in vitro ADME; conditions: 1 μM, 0.4 mg/mL protein
Method: as §1

[3] = system: chloroquine-sensitive (NF54) strain of P. falciparum; assay: In vitro asexual blood-stage antiplasmodium pLDH assay, NF54 strain; assay type: cell-based; conditions: Plasmodium falciparum, NF54; pLDH, 72 h, n ≥ 3; read-out: In vitro antiplasmodium activity IC50 PfNF54 strain
Method: Compounds were screened against multi-drug-resistant (K1) and sensitive (NF54) strains of P. falciparum in vitro using a parasite lactate dehydrogenase assay (pLDH) (the method is described fully in the Supporting Information). […]
In vitro Asexual Blood Stage Antiplasmodium Assay
Parasites were cultured as per the method of Trager and Jensen,1 with modifications. IC50 values were determined using parasite lactate dehydrogenase as a marker for survival (Makler […]
et al, 1993). The test samples were prepared to a 10 mmol/L stock solution in 100% DMSO.
Samples were tested as a suspension if not completely dissolved. Further dilutions to the desired starting concentration were freshly prepared in growth media on each occasion of the experiment. The standard antimalarial drugs chloroquine (CQ) and artesunate (Arts) were used as the reference drug in all experiments. A full dose-response was performed for all compounds in a 96-well plate to determine the concentration inhibiting 50% of parasite growth (IC50– value). Test samples were tested at a starting concentration of 6mmol/L, which was then serially diluted 2-fold in growth medium to generate the tested concentration range. The same dilution technique was used for all samples. CQ and Arts were tested from a starting concentration of 1µg/mL. The highest concentration of solvent to which the parasites were exposed was <0.1% and has no measurable effect on the parasite viability (data not shown).
The assay plate was incubated at 37 °C for 72h in a sealed gas chamber under 3% O2 and 4% CO2 with the balance being N2. After 72h, the wells in the assay plate were gently resuspended, and 15µL from each well was transferred to a duplicate plate containing 100µL of Malstat reagent and 25µL of nitroblue tetrazolium solution in each well. Plates were left to develop for 20 minutes in the dark and then absorbance of each well was quantified using a spectrophotometer at 620nm wavelength.
The remaining population of parasites at each concentration of the test compound was determined by comparing the absorbance of each well to the absorbance of a well containing […]
the drug-free control. […]
The initial 100 µg/mL solution is serially diluted 10-

Structure (SMILES) | Microsomal EH (hepatic extraction ratio), rat [1] | solubility (Solubility) [µM] | Microsomal EH (hepatic extraction ratio), mouse [2] | IC50 [3] [nM]
CCN(CCNc1cc2[nH]c(-c3ccc(C(F)(F)F)nc3)nc2cn1)Cc1ccc(Cl)cc1O [Compound 19, 5-Chloro-2-((ethyl(2-((2-(6-(trifluoromethyl)pyridin-3-yl)-1H-imidazo[4,5-c]pyridin-6-yl)amino)ethyl)amino)methyl)phenol] | 0.78 | 140 (≈ 68.7 µg/mL) | 0.84 | 380
CCN(CCNc1cc2[nH]c(C3CCCC3)nc2cn1)Cc1ccc(Cl)cc1O [Compound 1, 5-Chloro-2-(((2-((2-cyclopentyl-1H-imidazo[4,5-c]pyridin-6-yl)amino)ethyl)(ethyl)amino)methyl)phenol] | 0.75 | 15 (≈ 6.21 µg/mL) | 0.88 | 340
CCN(CCNc1cc2[nH]c(-c3cccc(C(F)(F)F)c3)nc2cn1)Cc1ccc(Cl)cc1O [Compound 14, 5-Chloro-2-((ethyl(2-((2-(3-(trifluoromethyl)phenyl)-1H-imidazo[4,5-c]pyridin-6-yl)amino)ethyl)amino)methyl)phenol] | 0.70 | 65 (≈ 31.8 µg/mL) | 0.81 | 80

Second part, the molecule after the results:

Microsomal EH (hepatic extraction ratio), rat [1] | solubility (Solubility) [µM] | Microsomal EH (hepatic extraction ratio), mouse [2] | IC50 [3] [nM] | Structure (SMILES)
0.73 | 25 (≈ 9.65 µg/mL) | 0.81 | 390 | CCN(CCNc1cc2[nH]c(C3CC3)nc2cn1)Cc1ccc(Cl)cc1O [Compound 5, 5-Chloro-2-(((2-((2-cyclopropyl-1H-imidazo[4,5-c]pyridin-6-yl)amino)ethyl)(ethyl)amino)methyl)phenol]
0.73 | 200 (≈ 80 µg/mL) | 0.90 | 490 | CCN(CCNc1cc2[nH]c(C3(C)CC3)nc2cn1)Cc1ccc(Cl)cc1O [Compound 6, 5-Chloro-2-((ethyl(2-((2-(1-methylcyclopropyl)-1H-imidazo[4,5-c]pyridin-6-yl)amino)ethyl)amino)methyl)phenol]
